Assay results reported in US4146637A, “Anti-inflammatory N-acyl substituted benzamides” (priority 1976, dated 1979).
Where a name gives a salt, the structure may show the parent alone. Read-outs that look alike come from different tables or passages of the source.

Legend:
Antiarrhytmic test = assay type: in vivo; details: mouse, i.p.
Procedure: (§1) As the results of Table 3 show, the compounds of this invention have both lower toxicity and different side effects than metoclopramide. Compounds of this invention have interesting pharmacological characteristics. The pharmaco dynamics of the compounds prepared in Examples 9, 43 and 48 in the form of their hydrochlorides, as well as the reference compound, metoclopramide dihydrochloride, were determined by pharmacological screening for 54 group activities. The activities which were found were confirmed by secondary tests. Additionally, the ED100 of known group-specific comparative compounds is given.

Muscle relaxant test = assay type: in vivo, mouse; details: po; for minimal effective dose at 300 mg/kg: mouse, p.o., read-out: Muscle relaxant, MED (average minimal effective dose)
Procedure: as §1

Antiasthmatic test = assay type: in vivo; details: po, rat, p.o.; for minimal effective dose: read-out: Antiasthmatic, MED (average minimal effective dose)
Procedure: as §1

[1] = Systematic anaphylactic test; assay type: in vivo; details: po, mouse, p.o.
Procedure: as §1

Adjuvans arthritis = Adjuvans arthritis stoppage; assay type: in vivo, rat; details: for Adjuvans arthritis stoppage, percent inhibition of the secondary lesions on the 14th day (first value) / Adjuvans arthritis stoppage, percent inhibition of the secondary lesions on the 14th day (second value): rat, 100 mg/kg p.o.; for Adjuvans arthritis stoppage, percent inhibition of the secondary lesions on the 14th day (first value): first of two values; for Adjuvans arthritis stoppage, percent inhibition of the secondary lesions on the 14th day (second value): second of two values; for anti-inflammatory activity in the adjuvenous arthritis test: result in words
Procedure: as §1

Antithrombotic test = assay type: in vivo, rat; details: po; for minimal effective dose at 100 mg/kg: rat, p.o., read-out: Antithrombotic, MED (average minimal effective dose)
Procedure: as §1

Antiedematous test = assay type: in vivo; details: po, rat, p.o.; for minimal effective dose: read-out: Antiedematous, MED (average minimal effective dose)
Procedure: as §1

Cataleptic test = assay type: in vivo, mouse; details: po; for minimal effective dose at 100 mg/kg: mouse, p.o., read-out: Cataleptic, MED (average minimal effective dose)
Procedure: as §1

[2] = rat, cited from earlier work
[3] = i.p., mouse; cited from earlier work
[4] = acute carrageneen experiment; assay type: in vivo; details: result in words
[5] = antiallergic characteristics (summary statement); details: result in words
[6] = antimicrobial characteristics (summary statement); details: result in words
β-adrenergic = β-adrenergic blockage, in vitro; design: unit not given here; details: in vit., rat, dose 10
Procedure: as §1

Anti-electroshock test = assay type: in vivo; details: po, mouse, p.o.
Procedure: as §1

Antiaggressive test = assay type: in vivo, mouse
Procedure: as §1

Amphetamine stereotype = assay type: in vivo, mouse; details: po
Procedure: as §1

E. Coli = assay: antibacterial test E. Coli, in vitro; assay type: cell-based; details: in vit.
Procedure: as §1

## guanidine
Antiarrhytmic test
  Antiarrhytmic, ED100 of reference compound: 100 mg/kg

## CCN(CC)CCNC(=O)c1cc(Cl)c(NC(=O)COc2ccc(Cl)cc2)cc1OC [Example 43]
Muscle relaxant test
  minimal effective dose at 300 mg/kg: 300 mg/kg
Antiasthmatic test
  minimal effective dose: 100 mg/kg
[1]; read-out: Systematic anaphylactic, MED (average minimal effective dose)
  minimal effective dose: 100 mg/kg
Adjuvans arthritis
  Adjuvans arthritis stoppage, percent inhibition of the secondary lesions on the 14th day (first value): 43%
  Adjuvans arthritis stoppage, percent inhibition of the secondary lesions on the 14th day (second value): 46%
Antithrombotic test
  minimal effective dose at 100 mg/kg: 50 mg/kg
Antiedematous test
  minimal effective dose: 100 mg/kg
Cataleptic test
  minimal effective dose at 100 mg/kg: 100 mg/kg

## CCN(CC)CCNC(=O)c1cc(Cl)c(N)cc1OC [metoclopramide]
[2]; i.p.
  LD50: 180 mg/kg
[2]; oral
  LD50: 235 mg/kg
[3]
  LD50: 242 mg/kg

## CCN(CC)CCNC(=O)c1cc(Cl)c(NC(=O)C(C)Oc2ccc(Cl)cc2)cc1OC (stereo not drawn) [Example 48]
Antiasthmatic test
  minimal effective dose: 100 mg/kg
Adjuvans arthritis
  Adjuvans arthritis stoppage, percent inhibition of the secondary lesions on the 14th day (first value): 45%
  Adjuvans arthritis stoppage, percent inhibition of the secondary lesions on the 14th day (second value): 33%
Antithrombotic test
  minimal effective dose at 100 mg/kg: 100 mg/kg

## CN(C)CCOc1ccccc1Cc1ccccc1 [phenyltoloxamine]
[1]; read-out: Systematic anaphylactic, ED100 of reference compound
  ED100: 50 mg/kg

## CCN(CC)CCNC(=O)c1cc(Cl)c(NC(=O)COc2ccc(Cl)cc2)cc1OC [Example 40]
[4]
  anti-inflammatory activity in the acute carrageneen experiment: very strong anti-inflammatory activity
[5]
  antiallergic characteristics: antiallergic characteristics
[6]
  antimicrobial characteristics: weak antimicrobial
Adjuvans arthritis
  anti-inflammatory activity in the adjuvenous arthritis test: very strong anti-inflammatory activity

## CCN(CC)CCNC(=O)c1cc(Cl)c(NC(=O)C(C)(C)Oc2ccc(Cl)cc2)cc1OC [Example 9]
β-adrenergic
  β-adrenergic blockage, MEC (average effective concentration): 10

## CC(=O)Oc1ccccc1C(=O)O [acetylsalicylic acid]
Antithrombotic test; Rattus norvegicus, read-out: Antithrombotic, ED100 of reference compound
  ED100: 100 mg/kg

## CCC1(c2ccccc2)C(=O)NC(=O)NC1=O [phenobarbital]
Muscle relaxant test; Mus musculus, read-out: Muscle relaxant, ED100 of reference compound
  ED100: 100 mg/kg
Cataleptic test; Mus musculus, read-out: Cataleptic, ED100 of reference compound
  ED100: 100 mg/kg

## CCCCC1C(=O)N(c2ccccc2)N(c2ccccc2)C1=O [phenybutazone]
Antiedematous test; read-out: Antiedematous, ED100 of reference compound
  ED100: 50 mg/kg

## O=C1NC(=O)C(c2ccccc2)(c2ccccc2)N1 [diphenylhydomtoin]
Anti-electroshock test; read-out: Anti-electroshock, ED100 of reference compound
  ED100: 10 mg/kg

## O=C(O)c1cc(=O)c2c(OCC(O)COc3cccc4oc(C(=O)O)cc(=O)c34)cccc2o1 [chromoglycine-sodium]
Antiasthmatic test; read-out: Antiasthmatic, ED100 of reference compound
  ED100: 60 mg/kg

## CCN(CC)CCNC(=O)c1cc(Cl)c(N)cc1OC [metoclopramide dihydrochloride]
Antiaggressive test; mouse, p.o., dose 50 mg/kg, MED not given
  Antiaggressive: 50 mg/kg
Muscle relaxant test
  minimal effective dose at 300 mg/kg: 100 mg/kg
Anti-electroshock test; read-out: Anti-electroshock, MED (average minimal effective dose)
  minimal effective dose: 100 mg/kg
Antiedematous test
  minimal effective dose: 50 mg/kg
Amphetamine stereotype; mouse, p.o., dose 25 mg/kg, read-out: Amphetamine stereotype, MED (average minimal effective dose)
  minimal effective dose at 25 mg/kg: 25 mg/kg
Cataleptic test
  minimal effective dose at 100 mg/kg: 100 mg/kg
Antiarrhytmic test; ip, read-out: Antiarrhytmic, MED (average minimal effective dose)
  minimal effective dose: 100 mg/kg

## CN(C)CCCN1c2ccccc2Sc2ccc(Cl)cc21 [chlorpromazine]
Antiaggressive test; Mus musculus, po, read-out: Antiaggressive, ED100 of reference compound
  ED100: 5 mg/kg
Amphetamine stereotype; Mus musculus, read-out: Amphetamine stereotype, ED100 of reference compound
  ED100: 5 mg/kg

## CCN(CC)CCNC(=O)c1cc(Cl)c(NC(=O)C(C)Oc2ccc(Cl)cc2)cc1OC (stereo not drawn) [Example 45]
[4]
  anti-inflammatory activity in the acute carrageneen experiment: very strong anti-inflammatory activity
[5]
  antiallergic characteristics: antiallergic characteristics
[6]
  antimicrobial characteristics: weak antimicrobial
Adjuvans arthritis
  anti-inflammatory activity in the adjuvenous arthritis test: very strong anti-inflammatory activity

## CC1(C)S[C@@H]2[C@H](NC(=O)[C@H](N)c3ccccc3)C(=O)N2[C@H]1C(=O)O [ampicillin]
E. Coli
  E. Coli, ED100 of reference compound: 0.5 mg/kg
